Assay results as given in ChEMBL document CHEMBL5532677, “From Hit to Lead: Structure-Based Optimization of Novel Selective Inhibitors of Receptor-Interacting Protein Kinase 1 (RIPK1) for the Treatment of Inflammatory Diseases” (J Med Chem, 2024).
The source made the active and inactive calls. The calls are words filed in the database; no cut-off is given here.

Legend:
Format in all cases: functional, organism-based
Settings in all cases: route top, time 7.0 day
Mus musculus [1] = test: Anti-inflammatory activity in BALB/c mouse model of IMQ-induced psoriasis assessed as improvement in skin thickening at 100 mg administered topically as 0.005% ointment measured daily for 7 days by H and E staining based analysis
Mus musculus [2] = test: Anti-inflammatory activity in BALB/c mouse model of IMQ-induced psoriasis assessed as reduction in PASI score at 100 mg administered topically as 0.005% ointment measured daily for 7 days by H and E staining based analysis
Mus musculus [3] = test: Anti-inflammatory activity in BALB/c mouse model of IMQ-induced psoriasis assessed as improvement in erythema at 100 mg administered topically as 0.005% ointment measured daily for 7 days by H and E staining based analysis

## C=C1/C(=C\C=C2/CCC[C@]3(C)[C@@H]([C@H](C)/C=C/[C@@H](O)C4CC4)CC[C@@H]23)C[C@@H](O)C[C@@H]1O
Mus musculus [1]
  Activity: inactive
Mus musculus [2]
  Activity: Active
Mus musculus [3]
  Activity: inactive
